Where a name gives a salt, the structure may show the parent alone.
Tested on: Bacillus megaterium strain H491
Assay: Chemical sensitivity, Biolog Phenotypic Microarray
Type: cell-based
Settings: not given

Structure (SMILES) | H491 susceptible to compound
Oc1cccc2cccnc12 [8-Hydroxyquinoline] | susceptible
CN1[C@@H]2CC[C@H]1C[C@@H](OC(=O)C(CO)c1ccccc1)C2 (some centres unmarked) [Atropine] | susceptible
O=C(O)CN(CCN(CC(=O)O)CC(=O)O)CC(=O)O [EDTA] | susceptible
O=C(O)CI [Iodoacetic acid] | susceptible

Same assay, conditions: Biolog Phenotypic Microarray, 25° C.

Structure (SMILES) | H491 susceptible to compound
CC(C)NCC(O)COc1cccc2ccccc12 (racemic) [D,L-Propanolol] | susceptible
O=C(O)CCCCC1CCSS1 (racemic) [D,L-Thioctic acid] | susceptible
O.c1cnc2c(c1)ccc1cccnc12 [1,10-Phenanthroline Monohydrate] | susceptible
On1ccccc1=S [1-Hydroxypyridine-2-thione] | susceptible
c1ccc(-c2ccccn2)nc1 [2,2′-Dipyridyl] | susceptible
CC(C)c1nc2nc(N)nc(N)c2nc1C(C)C [2,4-Diamino-6,7-diisopropylpteridine] | susceptible
O=[N+]([O-])c1ccc(O)c([N+](=O)[O-])c1 [2,4-Dintrophenol] | susceptible
O=[N+]([O-])c1ncc[nH]1 [2-Nitroimidazole] | susceptible
Oc1ccccc1-c1ccccc1 [2-Phenylphenol] | susceptible
O=C(O)c1cc([N+](=O)[O-])cc([N+](=O)[O-])c1 [3,5-Dinitrobenzoic acid] | susceptible
Nc1nc[nH]n1 [3-Amino-1,2,4-triazole] | susceptible
Cc1cc(O)cc(C)c1Cl [4-Chloro-3,5-dimethyl-phenol] | susceptible
O=c1cc(O)c2ccccc2o1 [4-Hydroxycoumarin] | susceptible
Cc1ccc2c(Cl)cc(Cl)c(O)c2n1 [5,7-Dichloro-8-hydroxyquinaldine] | susceptible
Oc1c(Cl)cc(Cl)c2cccnc12 [5,7-Dichloro-8-hydroxyquinoline] | susceptible
Oc1c(I)cc(Cl)c2cccnc12 [5-Chloro-7-iodo-8-hydroxy-quinoline] | susceptible
C[C@H]1O[C@@H](n2cc(F)c(=O)[nH]c2=O)[C@H](O)[C@@H]1O [5-Fluoro-5′-deoxyuridine] | susceptible
O=C(O)c1[nH]c(=O)[nH]c(=O)c1F [5-Fluoroorotic acid] | susceptible
O=c1[nH]cc(F)c(=O)[nH]1 [5-Fluorouracil] | susceptible
NC(=O)NN=Cc1ccc([N+](=O)[O-])o1 [5-Nitro-2-furaldehyde semicarbazone] | susceptible
O.Sc1ncnc2nc[nH]c12 [6-Mercaptopurine monohydrate] | susceptible
CCCCC(CC)CNC(=N)NC(=N)NCCCCCCNC(=N)NC(=N)NCC(CC)CCCC (centres unmarked) [Alexidine] | susceptible
CN(C)CCC=C1c2ccccc2CCc2ccccc21 [Amitriptyline] | susceptible
CC1(C)S[C@@H]2[C@H](NC(=O)[C@H](N)c3ccc(O)cc3)C(=O)N2[C@H]1C(=O)O [Amoxicillin] | susceptible
[Cl][Sb]([Cl])[Cl] [Antimony (III) chloride] | susceptible

Structure (SMILES) | H491 susceptible to compound
CN[C@@H]1[C@@H](O[C@H]2O[C@H](CO)[C@@H](N)[C@H](O)[C@H]2O)OC2C[C@@H](N)[C@@H](O[C@H]3[C@H](O)[C@@H](O)[C@H](N)C[C@@H]3N)OC2[C@@H]1O (some centres unmarked) [Apramycin] | susceptible
CC1(C)S[C@@H]2[C@H](NC(=O)[C@H](NC(=O)N3CCNC3=O)c3ccccc3)C(=O)N2[C@H]1C(=O)O [Azlocillin] | susceptible
CC(C)(C)CC(C)(C)c1ccc(OCCOCC[N+](C)(C)Cc2ccccc2)cc1 [Benzethonium Chloride] | susceptible
OB(O)O [Boric acid] | susceptible
[Cl][Cd][Cl] [Cadmium chloride] | susceptible
Cn1c(=O)c2c(ncn2C)n(C)c1=O [Caffeine] | susceptible
O=C1C2CC=CCC2C(=O)N1SC(Cl)(Cl)Cl (centres unmarked) [Captan] | susceptible
CC1(C)S[C@@H]2[C@H](NC(=O)C(C(=O)O)c3ccccc3)C(=O)N2[C@H]1C(=O)O (some centres unmarked) [Carbenicillin] | susceptible
N#CC(C#N)=NNc1cccc(Cl)c1 [Carbonyl-cyanide m-chlorophenylhydrazone] | susceptible
Cc1nnc(SCC2=C(C(=O)O)N3C(=O)[C@@H](NC(=O)Cn4cnnn4)[C@H]3SC2)s1 [Cefazolin] | susceptible
CO[C@@]1(NC(=O)Cc2cccs2)C(=O)N2C(C(=O)O)=C(COC(N)=O)CS[C@@H]21 [Cefoxitin] | susceptible
NC(=O)c1cc[n+](CC2=C(C(=O)O)N3C(=O)[C@@H](NC(=O)[C@@H](c4ccccc4)S(=O)(=O)[O-])[C@H]3SC2)cc1 [Cefsulodin] | susceptible
CC(=O)OCC1=C(C(=O)O)N2C(=O)[C@@H](NC(=O)Cc3cccs3)[C@H]2SC1 [Cephalothin] | susceptible
[Cl-].[Cs+] [Cesium chloride] | susceptible
O=C(O)CCCc1ccc(N(CCCl)CCCl)cc1 [Chlorambucil] | susceptible
CC(=O)O.CC(=O)O.NC(=N\CCCCCC/N=C(N)/N=C(\N)Nc1ccc(Cl)cc1)/N=C(\N)Nc1ccc(Cl)cc1 [Chlorhexidine diacetate] | susceptible
CN(C)CCCN1c2ccccc2Sc2ccc(Cl)cc21 [Chlorpromazine] | susceptible
CCn1nc(C(=O)O)c(=O)c2cc3c(cc21)OCO3 [Cinoxacin] | susceptible
Cc1onc(-c2ccccc2Cl)c1C(=O)N[C@@H]1C(=O)N2[C@@H]1SC(C)(C)[C@@H]2C(=O)O [Cloxacillin] | susceptible
[Cl-].[Cl-].[Co+2] [Cobalt (II) chloride] | susceptible
CN(C)c1ccc(C(=C2C=CC(=[N+](C)C)C=C2)c2ccc(N(C)C)cc2)cc1 [Crystal violet] | susceptible
N[C@@H]1CONC1=O [D-Cycloserine] | susceptible
N[C@H](CO)C(=O)O [D-Serine] | susceptible
CN(C)[C@@H]1C(O)=C(C(N)=O)C(=O)[C@@]2(O)C(O)=C3C(=O)c4c(O)ccc(Cl)c4[C@@H](O)[C@H]3C[C@@H]12 [Demeclocycline] | susceptible
CN(C)C(=O)/N=N/C(=O)N(C)C [Diamide] | susceptible

Structure (SMILES) | H491 susceptible to compound
CN(C)S(=O)(=O)N(SC(F)(Cl)Cl)c1ccccc1 [Dichlofluanid] | susceptible
CCCCCCCCCCCC[N+](C)(C)C.[Br-] [Dodecyltrimethyl ammonium bromide] | susceptible
CCCCCCCCCCCC[N+](C)(C)CCOc1ccccc1 [Domiphen bromide] | susceptible
CCn1cc(C(=O)O)c(=O)c2cc(F)c(N3CCNCC3)nc21 [Enoxacin] | susceptible
O=C(O)CN(CCOCCOCCN(CC(=O)O)CC(=O)O)CC(=O)O [Ethylene Glycol-bis(b-Aminoethyl ether)-N,N,N′,N′-Tetraacetic Acid] | susceptible
N#CC(C#N)=NNc1ccc(OC(F)(F)F)cc1 [FCCP] | susceptible
O=C1OC(CN2CCOCC2)CN1/N=C/c1ccc([N+](=O)[O-])o1 (centres unmarked) [Furaltadone] | susceptible
CC(=O)O[C@H]1C[C@@]2(C)[C@@H](C[C@@H](O)[C@H]3[C@@]4(C)CC[C@@H](O)[C@@H](C)[C@@H]4CC[C@@]32C)/C1=C(\CCC=C(C)C)C(=O)O [Fusidic acid, sodium salt] | susceptible
O=C(O)c1cc(O)c(O)c(O)c1 [Gallic acid] | susceptible
NCC(=O)NO [Glycine hydroxamate] | susceptible
N=C(N)N [Guanidine hydrochloride] | susceptible
Oc1c(Cl)cc(Cl)c(Cl)c1Cc1c(O)c(Cl)cc(Cl)c1Cl [Hexachlorophene] | susceptible
N.N.N.N.N.N.[Cl-].[Cl-].[Cl-].[Co+3] [Hexamine cobalt (III) chloride] | susceptible
NC(=O)NO [Hydroxyurea] | susceptible
CO[C@@H]1[C@@H](O[C@@H]2O[C@H](C)[C@@H](O[C@H]3C[C@@](C)(O)[C@@H](OC(=O)CC(C)C)[C@H](C)O3)[C@H](N(C)C)[C@H]2O)[C@@H](CC=O)C[C@@H](C)[C@@H](O)/C=C/C=C/C[C@@H](C)OC(=O)C[C@H]1OC(C)=O [Josamycin] | susceptible
CC(C(=O)O)c1cccc(C(=O)c2ccccc2)c1 (centres unmarked) [Ketoprofen] | susceptible
N[C@@H](CC(=O)NO)C(=O)O [L-Aspartic-b-hydroxamate] | susceptible
CCCCCCCCCCCC[N+](C)(C)CCCS(=O)(=O)[O-] [Lauryl sulfobetaine, N-Dodecyl-N,N-dimethyl-3-ammonio-1-propanesulfonate] | susceptible
CCN(CC)CC(=O)Nc1c(C)cccc1C [Lidocaine] | susceptible
CCC[C@@H]1C[C@@H](C(=O)N[C@@H]([C@H]2O[C@H](SC)[C@H](O)[C@@H](O)[C@H]2O)[C@@H](C)O)N(C)C1 [Lincomycin] | susceptible
[Cl-].[Li+] [Lithium chloride] | susceptible
CC1(S(=O)(=O)[O-])CC(=O)c2ccccc2C1=O.[Na+] (centres unmarked) [Menadione, sodium bisulfite] | susceptible
C[n+]1ccc(-c2cc[n+](C)cc2)cc1 [Methyl viologen] | susceptible
